# pEC50: −log10 of the molar value. Read-outs that look alike come from different tables or passages of the source. Numbered stars: 1 amine (or outer) side, 2 acyl side, 3 side chain; on linkers, the order of the positions; unused ones are H or OH. Square brackets hold non-standard residues; d marks the D form. Peptide text beside a SMILES is read from it. * marks the point of attachment. Pro(4R-NH2) = N[C@H]1CN[C@H](C(=O)O)C1; X2 = O=C([C@H]1CCCN([*:1])C1)[*:2]; NMeR = CN[C@@H](CCCNC(=N)N)C(=O)O; X1 = CCCCCCCCN1CCC[C@H](C(=O)*)C1; dDap(Me2) = CN(C)C[C@@H](N)C(=O)O; Hyp = O=C(O)[C@@H]1C[C@@H](O)CN1; NMeF = CN[C@@H](Cc1ccccc1)C(=O)O; NMeL = CN[C@@H](CC(C)C)C(=O)O; Octanoyl = CCCCCCCC(=O)*
# Legend:
# [1] = biological target: T1, NPR-B (Homo sapiens, UniProt P20594); assay: NPR-B induced production of cyclic GMP in human glaucoma trabecular meshwork cells (GTM-3); type: cell-based
# T1 construct: endogenously NPR-B expressing GTM-3 cells; endogenous in cells; host or cells: GTM-3 (human glaucoma trabecular meshwork cells)
# T1 sequence (P20594 23-1047): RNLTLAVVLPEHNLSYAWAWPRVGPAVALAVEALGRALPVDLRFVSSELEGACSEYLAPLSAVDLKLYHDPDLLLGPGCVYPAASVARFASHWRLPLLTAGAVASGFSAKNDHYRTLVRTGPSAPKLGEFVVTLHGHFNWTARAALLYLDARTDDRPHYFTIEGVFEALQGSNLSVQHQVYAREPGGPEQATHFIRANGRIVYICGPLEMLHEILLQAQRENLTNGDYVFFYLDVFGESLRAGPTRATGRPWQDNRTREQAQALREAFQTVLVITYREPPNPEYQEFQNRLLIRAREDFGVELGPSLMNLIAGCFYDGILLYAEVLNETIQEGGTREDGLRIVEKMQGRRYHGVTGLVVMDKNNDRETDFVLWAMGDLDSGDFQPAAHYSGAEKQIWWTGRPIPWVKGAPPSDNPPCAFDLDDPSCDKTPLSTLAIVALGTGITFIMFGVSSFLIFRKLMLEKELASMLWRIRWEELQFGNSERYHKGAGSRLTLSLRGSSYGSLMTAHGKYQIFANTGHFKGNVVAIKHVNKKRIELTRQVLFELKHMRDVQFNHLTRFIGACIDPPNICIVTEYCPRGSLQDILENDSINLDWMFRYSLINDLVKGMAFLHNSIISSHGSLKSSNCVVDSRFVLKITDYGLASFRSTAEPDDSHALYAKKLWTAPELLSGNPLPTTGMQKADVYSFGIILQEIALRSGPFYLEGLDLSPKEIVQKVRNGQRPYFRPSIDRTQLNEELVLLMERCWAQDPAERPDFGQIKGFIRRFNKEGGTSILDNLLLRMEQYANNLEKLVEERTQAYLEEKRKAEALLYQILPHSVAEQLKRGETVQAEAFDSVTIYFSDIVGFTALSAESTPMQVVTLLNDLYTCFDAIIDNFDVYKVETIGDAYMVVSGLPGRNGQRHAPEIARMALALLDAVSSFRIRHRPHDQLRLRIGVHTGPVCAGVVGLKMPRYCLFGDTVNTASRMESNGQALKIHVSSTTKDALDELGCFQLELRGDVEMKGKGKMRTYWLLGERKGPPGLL
# [2] = system: human colon adenocarcinoma cells; details: 1 mM, within 24 h; cited from earlier work
# [3] = system: chondrocytes; details: low doses 10 to 100 pM, at the highest dose; cited from earlier work
# [4] = system: human renal carcinoma cells; details: 100 μM; cited from earlier work
# [5] = NPR-B activation in GTM-3 cells, group set by EC50 and Emax (CNP = 100%), read-out: Activity (group)
SMILES,"pEC50 [1, 5]",other results
"CC[C@H](C)[C@@H]1NC(=O)[C@H](CCCNC(=N)N)NC(=O)[C@H](CC(=O)O)NC(=O)[C@H](CCSC)NC(=O)[C@H](CCCNC(=N)N)NC(=O)CNC(=O)CNC(=O)[C@H](Cc2ccccc2)NC(=O)[C@H](Cc2c[nH]cn2)NC(=O)[C@@H](NC(=O)[C@@H](N)CCSC)CSSC[C@@H](C(=O)N[C@@H](Cc2ccc(O)cc2)C(=O)N[C@@H](CCCNC(=N)N)C(N)=O)NC(=O)[C@H](CO)NC1=O [mini-ANP, reference compound] (HELM PEPTIDE1{M.C.H.F.G.G.R.M.D.R.I.S.C.Y.R.[am]}$PEPTIDE1,PEPTIDE1,2:R3-13:R3$$$V2.0)",,"pEC50 ([1]; GTM-3 cells, 4-Parameter Logistic Equation, highest concentration 45 μM, FIG. 2, read-out: EC50, cyclic GMP production in GTM-3 cells): < 4.35"
"CC[C@H](C)[C@@H]1NC(=O)[C@H](CCCNC(=N)N)NC(=O)[C@H](CC(=O)O)NC(=O)[C@H](CCSC)NC(=O)[C@H](CCCNC(=N)N)NC(=O)CNC(=O)CNC(=O)[C@H](Cc2ccccc2)NC(=O)[C@@H](NC(=O)[C@H](CO)NC(=O)[C@H](CO)NC(=O)[C@H](CCCNC(=N)N)NC(=O)[C@H](CCCNC(=N)N)NC(=O)[C@H](CC(C)C)NC(=O)[C@@H](N)CO)CSSC[C@@H](C(=O)N[C@@H](CC(N)=O)C(=O)N[C@@H](CO)C(=O)N[C@@H](Cc2ccccc2)C(=O)N[C@@H](CCCNC(=N)N)C(=O)N[C@@H](Cc2ccc(O)cc2)C(=O)O)NC(=O)CNC(=O)[C@H](CC(C)C)NC(=O)CNC(=O)[C@H](CO)NC(=O)[C@H](CCC(N)=O)NC(=O)[C@H](C)NC(=O)CNC1=O [ANP, atrial natriuretic peptide]",,decrease in cell number [2]: up to 97%
"CC[C@H](C)[C@@H]1NC(=O)[C@H](CCCNC(=N)N)NC(=O)[C@H](CC(=O)O)NC(=O)[C@H](CC(C)C)NC(=O)[C@H](CCCCN)NC(=O)[C@H](CC(C)C)NC(=O)CNC(=O)[C@H](Cc2ccccc2)NC(=O)[C@@H](NC(=O)CNC(=O)[C@H](CCCCN)NC(=O)[C@H](CO)NC(=O)[C@H](CC(C)C)NC(=O)CN)CSSC[C@@H](C(=O)O)NC(=O)CNC(=O)[C@H](CC(C)C)NC(=O)CNC(=O)[C@H](CO)NC(=O)[C@H](CCSC)NC(=O)[C@H](CO)NC(=O)CNC1=O [CNP, C-type natriuretic peptide]",,increase in cellularity (chondrocyte proliferation) [3]: up to 43%; decrease in cell number [4]: 10%

# Further lines, with some results ahead:
"pEC50 [1, 5]",SMILES,other results
> 6.00,"CCCCCCCC(=O)N1CCC[C@H](C(=O)N[C@@H](Cc2ccccc2)C(=O)N[C@H](CN(C)C)C(=O)N[C@@H](CC(C)C)C(=O)N2C[C@H](O)C[C@H]2C(=O)N(C)[C@@H](CC(C)C)C(=O)N[C@@H](CC(=O)O)C(=O)N(C)[C@@H](CCCNC(=N)N)C(=O)N[C@H](C(N)=O)[C@@H](C)CC)C1 [JAL-1576, Occ-Sni-Phe-dap(Me2)-Leu-Hyp-Nml-Asp-Nmr-Ile-NH2] (Octanoyl-[X2]F[dDap(Me2)]L[Hyp][NMeL]D[NMeR]I-NH2)",
> 6.00,"CCCCCCCC(=O)N1CCC[C@H](C(=O)N[C@@H](Cc2ccccc2)C(=O)N[C@H](CN(C)C)C(=O)N[C@@H](CC(C)C)C(=O)N2C[C@H](O)C[C@H]2C(=O)N(C)[C@@H](CC(C)C)C(=O)N[C@@H](CC(=O)O)C(=O)N2CCC[C@H]2C(=O)N[C@H](C(N)=O)[C@@H](C)CC)C1 [JAL-1580, Occ-Sni-Phe-dap(Me2)-Leu-Hyp-Nml-Asp-Pro-Ile-NH2] (Octanoyl-[X2]F[dDap(Me2)]L[Hyp][NMeL]DPI-NH2)",
> 6.00,"CCCCCCCC(=O)N1CCC[C@H](C(=O)N(C)[C@@H](Cc2ccccc2)C(=O)N[C@H](CN(C)C)C(=O)N[C@@H](CC(C)C)C(=O)N2C[C@H](O)C[C@H]2C(=O)N(C)[C@@H](CC(C)C)C(=O)N[C@@H](CC(=O)O)C(=O)N[C@@H](CCCNC(=N)N)C(=O)N[C@H](C(N)=O)[C@@H](C)CC)C1 [JAL-1579, Occ-Sni-Nmf-dap(Me2)-Leu-Hyp-Nml-Asp-Arg-Ile-NH2] (Octanoyl-[X2][NMeF][dDap(Me2)]L[Hyp][NMeL]DRI-NH2)",
> 6.00,"CCCCCCCCN1CCC[C@H](C(=O)N[C@@H](Cc2ccccc2)C(=O)N[C@H](CN(C)C)C(=O)N[C@@H](CC(C)C)C(=O)N2C[C@H](O)C[C@H]2C(=O)N(C)[C@@H](CC(C)C)C(=O)N[C@@H](CC(=O)O)C(=O)N[C@@H](CCCNC(=N)N)C(=O)N[C@H](C(N)=O)[C@@H](C)CC)C1 [JAL-1429, Oct-Sni-Phe-dap(Me2)-Leu-Hyp-Nml-Asp-Arg-Ile-NH2] (HELM PEPTIDE1{[CCCCCCCCN1CCC[C@H](C(=O)[*:2])C1].F.[CN(C)C[C@@H](N[*:1])C(=O)[*:2]].L.[Hyp].[meL].D.R.I.[am]}$$$$V2.0)",
> 6.00,"CCCCCCCC(=O)N[C@H](C)C(=O)N[C@@H](Cc1ccccc1)C(=O)N[C@H](CC(C)C)C(=O)N[C@@H](CC(C)C)C(=O)N1C[C@H](O)C[C@H]1C(=O)N(C)[C@@H](CC(C)C)C(=O)N[C@@H](C(=O)N[C@@H](CCCNC(=N)N)C(=O)N[C@H](C(N)=O)[C@@H](C)CC)c1cccs1 [JAL-1558, Occ-ala-Phe-leu-Leu-Hyp-Nml-(BB727)-Arg-Ile-NH2] (HELM PEPTIDE1{[CCCCCCCC(=O)[*:2]].[dA].F.[dL].L.[Hyp].[meL].[O=C([C@H](N[*:1])c1cccs1)[*:2]].R.I.[am]}$$$$V2.0)",
> 6.00,"CCCCCCCCN1CCC[C@H](C(=O)N[C@@H](Cc2ccccc2)C(=O)N[C@H](CN(C)C)C(=O)N[C@@H](CC(C)C)C(=O)N2C[C@H](N)C[C@H]2C(=O)N(C)[C@@H](CC(C)C)C(=O)N[C@@H](CC(=O)O)C(=O)N[C@@H](CCCNC(=N)N)C(=O)N[C@H](C(N)=O)[C@@H](C)CC)C1 [JAL-1369, Oct-Sni-Phe-dap(Me2)-Leu-Tap-Nml-Asp-Arg-Ile-NH2] (X1-F[dDap(Me2)]L[Pro(4R-NH2)][NMeL]DRI-NH2)",

# Source: patent US9982016B2, “NPR-B agonists” (priority 2009, dated 2018)
